Patent US20250009734A1, “METHODS OF INHIBITING FOXO1 FOR TREATMENT OF LYMPHATIC DISORDERS” (UNIVERSITY OF SOUTH FLORIDA, priority 2023, published 2025)

Assays:
[1] = system: human dermal lymphatic endothelial cells (hdLECs); assay: qRT-PCR of valve and flow responsive gene mRNA in cultured hdLECs; type: cell-based
Experimental: FIG. 1. AS1842856 (AS) has a time and concentration dependent effect on valve genes expression. Human dermal lymphatic endothelial cells (hdLECs) were cultured under static conditions and treated for the indicated time (24, 48, and 72 hours) and concentrations from left to right: DMSO 1 μM, AS 0.1 μM, AS 0.5 μM, and AS 1 μM. Afterwards, mRNA of indicated genes was extracted, reverse transcribe and quantified by qRT-PCR analysis. All values are mean±SEM. n=3 experiment repeats; ns=not significant; *p≤0.05, **p≤0.01.
To investigate this, hdLECs were treated with three distinct concentrations of AS1842856-0.1 μM, 0.5 μM, and 1 μM for 24 hours (hrs), 48 hrs, and 72 hrs. DMSO was used as the vehicle control. The medium was changed every day with freshly made drug. Thereafter, the expression levels of valve genes and flow responsive genes, including FOXC2, GATA2, PROX1, KLF4, ITGA9, GJA4, NOS3, and CTNNB1, were determined using quantitative RT-qPCR. […] Deletion of any of these three genes leads to the absence of lymphatic valve formation during embryonic development (Petrova et al., 2004, Kazenwadel et al., 2015, Cha et al., 2016). […] However, the expression of CTNNB1 was not altered.
Human dermal lymphatic endothelial cells (hdLECs) purchased from Promocell (C-12216) were cultured in EBM-V2 (PromoCell, C-22121) media on fibronectin (20 μl/well) coated 6-well plates. hdLECs were treated with 4 different conditions: DMSO (1 μM), AS1842856 (EMD Millipore Corporation) 0.1 μM, 0.5 μM and 1 μM for 3 different time points: 24, 48, and 72 hours for qRT-PCR. For western blot, hdLECs were treated with 0.5 μM AS1842856 for 48 hours.
The RNeasy Plus Mini Kit (Qiagen) was used to isolate total RNA from hdLECs per the manufacturers' instructions. cDNA synthesis was performed using the AdvantageR RT-for-PCR kit (Takara) according to the manufacturer's guidelines. qPCR was performed in a QuantStudio 6 realtime PCR system (Applied Biosystems) with TaqmanR probes (Applied Biosystems, Thermofisher) and the Cq value of each gene was normalized to the that of GAPDH.

[2] = system: human dermal lymphatic endothelial cells (hdLECs); assay: Immunostaining of PROX1 and β-catenin localization in cultured hdLECs; type: cell-based; conditions: 0.5 μM AS for 48 hours, DMSO control: almost exclusively on the cell membrane
Experimental: FIGS. 2A-2F. AS1842856 elevates protein expression of valve genes and promotes b-catenin nuclear localization in cultured hdLECs. (A) hdLECs were cultured under static condition and treated for 48 hours with 0.5 μM DMSO (vehicle control) or 0.5 μM AS treatment. Thereafter, proteins were extracted, and western blot perform for the indicated proteins. ACTB is the loading control. (B) Quantification results of indicated proteins in western blot from three independent experiments. (C-F) Immunostaining of cultured hdLECs for PROX1 and CTNNB1 protein. All values are mean±SEM. n=3 experiment repeats; ns=not significant; *p≤0.05, **p≤0.01, ***p≤0.001. Vehicle control: 0.5 μM DMSO for 48 hours treatment. AS1842856: 0.5 μM AS1842856 for 48 hours treatment. Cells were stained for PROX1 (green) and CTNNB1 (purple). (E) and (F) are the merged images for PROX1 and CTNNB1. Scale bar is 50 μm.
In cells, phosphorylated β-catenin is degraded in a destruction complex in the cytoplasm, but unphosphorylated β-catenin upon activation is translocated to the nucleus from the cytoplasm (Harada et al., 1999). It has been reported that β-catenin in the nucleus of LECs promotes the expression of valve-forming genes FOXC2 and PROX1 by binding to the promoter areas of these two genes (Cha et al., 2016). […]

FOXO1 = FOXO1 (Homo sapiens, UniProt Q12778); conditions: binds to FOXO1 protein, prevents binding to promoter regions; Nagashima et al., 2010; cited from earlier work
FOXO3 = FOXO3 (Homo sapiens, UniProt O43524); conditions: Nagashima et al., 2010; cited from earlier work
FOXO4 = FOXO4 (Homo sapiens, UniProt P98177); conditions: Nagashima et al., 2010; cited from earlier work
[3] = Nagashima et al., 2010; cited from earlier work

FOXO1, sequence (Q12778 whole entry, species assumed): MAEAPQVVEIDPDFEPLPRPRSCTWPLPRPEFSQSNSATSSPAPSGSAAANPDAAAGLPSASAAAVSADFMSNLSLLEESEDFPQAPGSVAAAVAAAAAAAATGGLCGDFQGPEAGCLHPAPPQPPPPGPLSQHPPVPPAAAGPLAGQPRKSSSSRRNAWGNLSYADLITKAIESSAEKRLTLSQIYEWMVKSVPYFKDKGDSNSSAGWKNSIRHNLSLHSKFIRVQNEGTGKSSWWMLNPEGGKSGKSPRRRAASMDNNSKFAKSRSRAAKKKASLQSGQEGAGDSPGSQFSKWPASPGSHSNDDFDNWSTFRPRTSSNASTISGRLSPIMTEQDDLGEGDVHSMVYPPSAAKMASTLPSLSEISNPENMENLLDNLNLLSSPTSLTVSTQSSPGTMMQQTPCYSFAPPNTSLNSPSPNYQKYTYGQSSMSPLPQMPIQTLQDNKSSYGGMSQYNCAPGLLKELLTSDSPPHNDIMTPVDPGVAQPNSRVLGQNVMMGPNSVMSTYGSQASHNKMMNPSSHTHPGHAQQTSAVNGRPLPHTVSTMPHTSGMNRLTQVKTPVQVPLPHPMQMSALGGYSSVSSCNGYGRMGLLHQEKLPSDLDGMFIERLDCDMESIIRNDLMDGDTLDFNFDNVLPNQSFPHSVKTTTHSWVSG
FOXO4, sequence (P98177 whole entry, species assumed): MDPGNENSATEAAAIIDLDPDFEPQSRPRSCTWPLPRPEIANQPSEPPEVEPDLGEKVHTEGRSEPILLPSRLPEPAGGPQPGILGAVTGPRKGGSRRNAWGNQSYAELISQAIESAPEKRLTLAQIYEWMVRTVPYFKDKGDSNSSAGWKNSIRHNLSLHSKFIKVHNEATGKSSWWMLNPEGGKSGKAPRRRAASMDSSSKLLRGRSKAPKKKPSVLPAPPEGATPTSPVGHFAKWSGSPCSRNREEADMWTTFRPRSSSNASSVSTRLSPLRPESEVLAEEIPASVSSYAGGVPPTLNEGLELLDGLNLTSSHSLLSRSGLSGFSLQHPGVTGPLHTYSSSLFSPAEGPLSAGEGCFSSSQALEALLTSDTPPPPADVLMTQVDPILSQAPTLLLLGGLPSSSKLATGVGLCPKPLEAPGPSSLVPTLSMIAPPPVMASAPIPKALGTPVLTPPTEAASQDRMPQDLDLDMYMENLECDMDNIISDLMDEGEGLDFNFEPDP
FOXO3, sequence (O43524 whole entry, species assumed): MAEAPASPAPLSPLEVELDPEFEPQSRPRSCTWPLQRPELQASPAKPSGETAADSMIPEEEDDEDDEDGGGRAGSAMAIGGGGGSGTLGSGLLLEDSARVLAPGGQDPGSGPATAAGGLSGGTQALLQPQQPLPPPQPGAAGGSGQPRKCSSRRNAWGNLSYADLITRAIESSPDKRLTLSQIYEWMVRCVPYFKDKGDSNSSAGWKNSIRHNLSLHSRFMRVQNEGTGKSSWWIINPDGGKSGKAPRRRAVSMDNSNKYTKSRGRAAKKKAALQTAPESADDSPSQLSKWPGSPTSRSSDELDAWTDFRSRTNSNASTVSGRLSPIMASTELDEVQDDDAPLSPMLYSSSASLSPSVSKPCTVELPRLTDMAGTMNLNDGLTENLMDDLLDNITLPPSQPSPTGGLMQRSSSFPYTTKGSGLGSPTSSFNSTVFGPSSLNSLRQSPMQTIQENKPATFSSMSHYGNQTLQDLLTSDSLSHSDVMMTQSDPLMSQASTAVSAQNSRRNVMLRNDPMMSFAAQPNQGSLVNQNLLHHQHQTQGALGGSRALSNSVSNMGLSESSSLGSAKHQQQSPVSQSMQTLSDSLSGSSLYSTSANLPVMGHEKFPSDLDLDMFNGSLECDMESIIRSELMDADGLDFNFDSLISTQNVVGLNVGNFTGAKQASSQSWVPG

## CCn1cc(C(=O)O)c(=O)c2c(N)c(F)c(NC3CCCCC3)cc21 [AS1842856]
[1]; 0.5 μM for 48 hrs
  increased expression of FOXC2, GATA2, KLF4, ITGA9, GJA4, NOS3, and PROX1 (comparison of treatment conditions): best results
[1]; 24 hrs or 72 hrs AS treatment vs DMSO
  GATA2 mRNA expression level: not with 24 hrs or 72 hrs treatment
[1]; 48 hrs AS treatment vs DMSO
  CTNNB1 mRNA expression: not altered
  FOXC2 mRNA expression level: significantly upregulated
  GATA2 mRNA expression level: significantly upregulated
  GJA4 mRNA expression level: significantly higher
  ITGA9 mRNA expression level: significantly higher
  KLF4 mRNA expression level: significantly increased
  NOS3 mRNA expression: significantly increased
  PROX1 mRNA expression level: significantly increased
[1]; 48 hrs, 0.1 μM
  FOXC2 mRNA expression level: trend of increase
  GATA2 mRNA expression level: trend of increase
[1]; 48 hrs, 0.1 μM and 0.5 μM
  GJA4 mRNA expression level: upregulated
  ITGA9 mRNA expression level: upregulated
  NOS3 mRNA expression level: upregulated
  PROX1 mRNA expression level: upregulated
[1]; 48 hrs, 0.5 μM and 1 μM
  FOXC2 mRNA expression: significant increase
  GATA2 mRNA expression: significant increase
[1]; 48 hrs, 1 μM
  GJA4 mRNA expression level: not under 1 μM
  ITGA9 mRNA expression level: not under 1 μM
  NOS3 mRNA expression level: not under 1 μM
  PROX1 mRNA expression level: not under 1 μM
[1]; 48 hrs, 0.1, 0.5 and 1 μM
  CTNNB1 mRNA expression: None of the concentrations induced significant upregulation
  FOXO1 mRNA expression: None of the concentrations induced significant upregulation
[1]; 48 hrs, all three concentrations (0.1, 0.5, 1 μM)
  KLF4 mRNA expression: increased
[1]; AS treatment vs DMSO
  FOXO1 mRNA expression level: not altered
[2]
  localization of β-catenin (immunostaining): a remarkable amount of β-catenin was in the nucleus
FOXO1
  effect on transcription activity of FOXO1 in the nucleus: reduces the transcription activity of FOXO1
FOXO3
  effect on inhibiting the activity of FOXO3: minimal effect
FOXO4
  effect on inhibiting the activity of FOXO4: minimal effect
[3]
  cell permeability: cell permeable
